Test results: patent US5861375A, “Antiprotozoal cyclic tetrapeptides” (Merck & Co., Inc., priority 1997, dated 1999)

Tested on: Plasmodium falciparum
Test: Radioactive antimalarial assay (parasite specific uptake of radiolabel)
Format: cell-based
Conditions: P. falciparum
Description: Compound of formula Ia was evaluated against Eimeria tenella, Toxoplasma gondii, and Plasmodium falciparum according to methods reported in the literature.
The antimalarial activity was determined in a radioactive assay following the general protocol described in Desjardins et al, "Quantitative Assessment of Antimalarial Activity In Vitro by a Semiautomated Microdilution Technique" Antimicrobial Agents and Chemotherapy. 1979, 16:710-718.

`CCC(=O)CCCCC[C@@H]1NC(=O)[C@H]2CCCCN2C(=O)[C@H]([C@@H](C)CC)NC(=O)[C@H](Cc2cn(OC)c3ccccc23)NC1=O` [Ia] was tested, and the “IC50 (the concentration of drug which inhibits the parasite specific uptake of radiolabel by 50%)” value was 0.054 µg/mL.
